Measurements from PubChem BioAssay AID1963847 (Molecular Pharmacology Branch, DTP, NCI, 2024).

Tested on: 415267-285-R-J2-PDC complex spheroid viability
Test: Anticancer human tumor 415267-285-R-J2-PDC patient-derived breast carcinoma cell line growth inhibition [POLQ]
Details: for IC50: curve of first compound; for viability, T/C: stronger effect = lower value
How it was run: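 PDC + HUVEC + MSC complex spheroids; POLQ inhibitors ± partner drugs; top conc. at/near clinical Cmax, else 10 microM (SN-38 1 microM), half-log dilutions; 37 degrees C, 5% CO2.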

[1] = second compound 0.0316 µM, first compound 0.0316 µM
[2] = second compound 0.0316 µM, first compound 0.1 µM
[3] = second compound 0.0316 µM, first compound 0.316 µM
[4] = second compound 0.0316 µM, first compound 1 µM
[5] = second compound 0.0316 µM, first compound 3.16 µM
[6] = second compound 0.0316 µM, first compound 10 µM
[7] = second compound 0.1 µM, first compound 0.0316 µM
[8] = second compound 0.1 µM, first compound 0.1 µM
[9] = second compound 0.1 µM, first compound 0.316 µM
[10] = second compound 0.1 µM, first compound 1 µM
[11] = second compound 0.1 µM, first compound 3.16 µM
[12] = second compound 0.1 µM, first compound 10 µM
[13] = second compound 0.316 µM, first compound 0.0316 µM
[14] = second compound 0.316 µM, first compound 0.1 µM
[15] = second compound 0.316 µM, first compound 0.316 µM
[16] = second compound 0.316 µM, first compound 1 µM
[17] = second compound 0.316 µM, first compound 3.16 µM
[18] = second compound 0.316 µM, first compound 10 µM
[19] = second compound 1 µM, first compound 0.0316 µM
[20] = second compound 1 µM, first compound 0.1 µM
[21] = second compound 1 µM, first compound 0.316 µM
[22] = second compound 1 µM, first compound 1 µM
[23] = second compound 1 µM, first compound 3.16 µM
[24] = second compound 1 µM, first compound 10 µM
[25] = second compound 3.16 µM, first compound 0.0316 µM
[26] = second compound 3.16 µM, first compound 0.1 µM
[27] = second compound 3.16 µM, first compound 0.316 µM
[28] = second compound 3.16 µM, first compound 1 µM
[29] = second compound 3.16 µM, first compound 3.16 µM
[30] = second compound 3.16 µM, first compound 10 µM
[31] = second compound 10 µM, first compound 0.0316 µM
[32] = second compound 10 µM, first compound 0.1 µM
[33] = second compound 10 µM, first compound 0.316 µM
[34] = second compound 10 µM, first compound 1 µM
[35] = second compound 10 µM, first compound 3.16 µM
[36] = second compound 10 µM, first compound 10 µM
[37] = second compound 0.0316 µM, first compound 0.00316 µM
[38] = second compound 0.0316 µM, first compound 0.01 µM
[39] = second compound 0.1 µM, first compound 0.00316 µM
[40] = second compound 0.1 µM, first compound 0.01 µM
[41] = second compound 0.316 µM, first compound 0.00316 µM
[42] = second compound 0.316 µM, first compound 0.01 µM
[43] = second compound 1 µM, first compound 0.00316 µM
[44] = second compound 1 µM, first compound 0.01 µM
[45] = second compound 3.16 µM, first compound 0.00316 µM
[46] = second compound 3.16 µM, first compound 0.01 µM
[47] = second compound 10 µM, first compound 0.00316 µM
[48] = second compound 10 µM, first compound 0.01 µM
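Note: spheroids exposed to compounds for one week before readout.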
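Throughout, for viability, T/C: luminescence used as stand-in measure of viable cells; 100% = DMSO vehicle control viability.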

Compound `CC1COCCN1c1cc(C2(S(C)(=N)=O)CC2)nc(-c2ccnc3[nH]ccc23)n1` (stereo not drawn) + Cc1cccc(N(C)C(=O)C2C(O)CCN2c2nc(C)cc(C(F)(F)F)c2C#N)c1 has an IC50 (second compound 0.0316 µM) of 488 nM, an IC50 (second compound 0.1 µM) of 447 nM and an IC50 (second compound 0.316 µM) of 441 nM. For the same compound, the IC50 (second compound 1 µM) was 473 nM, the IC50 (second compound 3.16 µM) was 422 nM and the IC50 (second compound 10 µM) was 501 nM. The viability, T/C [1] was 88.4%, the viability, T/C [2] was 102% and the viability, T/C [3] was 70.3%. The viability, T/C [4] was 15.8%, the viability, T/C [5] was 6.51% and the viability, T/C [6] was 5.21%. The viability, T/C [7] was 92.8%, the viability, T/C [8] was 96.3% and the viability, T/C [9] was 65%. For the same compound, the viability, T/C [10] was 14.3%, the viability, T/C [11] was 5.97% and the viability, T/C [12] was 4.58%. For the same compound, the viability, T/C [13] was 102%, the viability, T/C [14] was 98.7% and the viability, T/C [15] was 62.8%. For the same compound, the viability, T/C [16] was 17.7%, the viability, T/C [17] was 6.78% and the viability, T/C [18] was 4.96%. It also gave a viability, T/C [19] of 106%, a viability, T/C [20] of 107% and a viability, T/C [21] of 70.2%. The viability, T/C [22] was 12.4%, the viability, T/C [23] was 6.47% and the viability, T/C [24] was 5.16%. For the same compound, the viability, T/C [25] was 94.2%, the viability, T/C [26] was 94.8% and the viability, T/C [27] was 62.4%. For the same compound, the viability, T/C [28] was 12.5%, the viability, T/C [29] was 6.4% and the viability, T/C [30] was 5.39%. The viability, T/C [31] was 91.6%, the viability, T/C [32] was 102% and the viability, T/C [33] was 72.7%. It also gave a viability, T/C [34] of 15.7%, a viability, T/C [35] of 6.3% and a viability, T/C [36] of 4.96%.

In the case of `CCCS(=O)(=O)Nc1ccc(F)c(C(=O)c2c[nH]c3ncc(-c4ccc(Cl)cc4)cc23)c1F` + Cc1cccc(N(C)C(=O)C2C(O)CCN2c2nc(C)cc(C(F)(F)F)c2C#N)c1, the IC50 (second compound 0.0316 µM) is reported as over 10000 nM, the IC50 (second compound 0.1 µM) is reported as over 10000 nM and the IC50 (second compound 0.316 µM) is reported as over 10000 nM. It also gave an IC50 (second compound 1 µM) of over 10000 nM, an IC50 (second compound 3.16 µM) of over 10000 nM and an IC50 (second compound 10 µM) of over 10000 nM. For the same compound, the viability, T/C [1] was 98.8%, the viability, T/C [2] was 111% and the viability, T/C [3] was 99%. The viability, T/C [4] was 93.8%, the viability, T/C [5] was 86.3% and the viability, T/C [6] was 91.2%. For the same compound, the viability, T/C [7] was 104%, the viability, T/C [8] was 93.5% and the viability, T/C [9] was 93.4%. It also gave a viability, T/C [10] of 102%, a viability, T/C [11] of 96.5% and a viability, T/C [12] of 88.9%. It also gave a viability, T/C [13] of 105%, a viability, T/C [14] of 99.4% and a viability, T/C [15] of 90.3%. It also gave a viability, T/C [16] of 102%, a viability, T/C [17] of 97.7% and a viability, T/C [18] of 86.7%. It also gave a viability, T/C [19] of 105%, a viability, T/C [20] of 101% and a viability, T/C [21] of 102%. The viability, T/C [22] was 99.9%, the viability, T/C [23] was 107% and the viability, T/C [24] was 79.3%. For the same compound, the viability, T/C [25] was 111%, the viability, T/C [26] was 103% and the viability, T/C [27] was 104%. For the same compound, the viability, T/C [28] was 104%, the viability, T/C [29] was 93.7% and the viability, T/C [30] was 91.1%. For the same compound, the viability, T/C [31] was 96.4%, the viability, T/C [32] was 96% and the viability, T/C [33] was 109%. The viability, T/C [34] was 111%, the viability, T/C [35] was 94% and the viability, T/C [36] was 73.8%.

`COc1cccc(OCCCN)c1-c1cc(Nc2cnc(C#N)cn2)n[nH]1` + Cc1cccc(N(C)C(=O)C2C(O)CCN2c2nc(C)cc(C(F)(F)F)c2C#N)c1 showed an IC50 (second compound 0.0316 µM) of 7.34 nM, an IC50 (second compound 0.1 µM) of 6.81 nM and an IC50 (second compound 0.316 µM) of 6.37 nM. The IC50 (second compound 1 µM) was 5.94 nM, the IC50 (second compound 3.16 µM) was 5.9 nM and the IC50 (second compound 10 µM) was 5.77 nM. It also gave a viability, T/C [37] of 116%, a viability, T/C [38] of 25.7% and a viability, T/C [1] of 6.57%. For the same compound, the viability, T/C [2] was 5.98%, the viability, T/C [3] was 5.5% and the viability, T/C [4] was 4.04%. It also gave a viability, T/C [39] of 106%, a viability, T/C [40] of 22.1% and a viability, T/C [7] of 5.33%. The viability, T/C [8] was 6.85%, the viability, T/C [9] was 7.24% and the viability, T/C [10] was 4.47%. The viability, T/C [41] was 107%, the viability, T/C [42] was 13% and the viability, T/C [13] was 5.56%. For the same compound, the viability, T/C [14] was 4.64%, the viability, T/C [15] was 4.82% and the viability, T/C [16] was 4.6%. It also gave a viability, T/C [43] of 99.2%, a viability, T/C [44] of 9.45% and a viability, T/C [19] of 5.53%. The viability, T/C [20] was 5.41%, the viability, T/C [21] was 6.23% and the viability, T/C [22] was 4.72%. It also gave a viability, T/C [45] of 97.3%, a viability, T/C [46] of 10.1% and a viability, T/C [25] of 7.08%. For the same compound, the viability, T/C [26] was 5.58%, the viability, T/C [27] was 5.55% and the viability, T/C [28] was 4.93%. The viability, T/C [47] was 94.3%, the viability, T/C [48] was 9.4% and the viability, T/C [31] was 6.2%. It also gave a viability, T/C [32] of 10.2%, a viability, T/C [33] of 5.74% and a viability, T/C [34] of 5.13%.

In the case of `Cn1ncnc1[C@H]1c2n[nH]c(=O)c3cc(F)cc(c23)N[C@@H]1c1ccc(F)cc1` + Cc1cccc(N(C)C(=O)C2C(O)CCN2c2nc(C)cc(C(F)(F)F)c2C#N)c1, the IC50 (second compound 0.0316 µM) is reported as over 100 nM, the IC50 (second compound 0.1 µM) is reported as over 100 nM and the IC50 (second compound 0.316 µM) is reported as over 100 nM. The IC50 (second compound 1 µM) was over 100 nM, the IC50 (second compound 3.16 µM) was over 100 nM and the IC50 (second compound 10 µM) was over 100 nM. The viability, T/C (second compound 0.0316 µM, first compound 0.000316 µM) was 92.9%, the viability, T/C (second compound 0.0316 µM, first compound 0.001 µM) was 103% and the viability, T/C [37] was 106%. The viability, T/C [38] was 96.3%, the viability, T/C [1] was 104% and the viability, T/C [2] was 96.5%. The viability, T/C (second compound 0.1 µM, first compound 0.000316 µM) was 90.8%, the viability, T/C (second compound 0.1 µM, first compound 0.001 µM) was 93.9% and the viability, T/C [39] was 114%. It also gave a viability, T/C [40] of 109%, a viability, T/C [7] of 99.9% and a viability, T/C [8] of 97.9%. For the same compound, the viability, T/C (second compound 0.316 µM, first compound 0.000316 µM) was 97.1%, the viability, T/C (second compound 0.316 µM, first compound 0.001 µM) was 90.4% and the viability, T/C [41] was 95.7%. The viability, T/C [42] was 96.8%, the viability, T/C [13] was 95.3% and the viability, T/C [14] was 87.2%. The viability, T/C (second compound 1 µM, first compound 0.000316 µM) was 103%, the viability, T/C (second compound 1 µM, first compound 0.001 µM) was 95.6% and the viability, T/C [43] was 93.9%. The viability, T/C [44] was 101%, the viability, T/C [19] was 98.3% and the viability, T/C [20] was 101%. For the same compound, the viability, T/C (second compound 3.16 µM, first compound 0.000316 µM) was 92.9%, the viability, T/C (second compound 3.16 µM, first compound 0.001 µM) was 97.1% and the viability, T/C [45] was 103%. For the same compound, the viability, T/C [46] was 103%, the viability, T/C [25] was 99.8% and the viability, T/C [26] was 87.7%. The viability, T/C (second compound 10 µM, first compound 0.000316 µM) was 93.3%, the viability, T/C (second compound 10 µM, first compound 0.001 µM) was 97.9% and the viability, T/C [47] was 110%. It also gave a viability, T/C [48] of 93%, a viability, T/C [31] of 91% and a viability, T/C [32] of 90.5%.
